From patent US20190216830A1, “OPHTHALMIC COMPOSITIONS” (Aciont Inc., priority 2017, published 2019)
Values joined by “and” are separate entries in the source; they are usually repeats but may differ in a detail not shown here. Identical values can stand only once.

What was measured:
[1] = test system: rabbit coronary microvessel endothelium; conditions: cited from earlier work
[2] = Toxicokinetic study: plasma DSP and DEX by LC-MS after single device application; type: in vivo, New Zealand White rabbits; conditions: after DSP application via device; all four regimens
Description: For the toxicokinetic study, there were four groups of rabbit. […] Blood was collected and processed for plasma at predose, 5, 30, 60, 120, 240, and 360 minutes, and 24, 48, 72, 96, and 168 hours after administration.
One drop of sterile proparacaine hydrochloride (a local anesthetic) was put on the eye (to be treated) 5 minutes before dose administration. […] The position of the device was checked to ensure that the active agent matrix was in immediate contact with the white part of the eye but not the cornea. Digital timers were used for accurate application times (i.e., 5, 10, or 20 minutes). After the given application duration, the applicator was carefully removed from the eye.
Approximately 1 mL of blood was collected by direct venipuncture of the jugular vein with a 3 mL syringe and 21 GA×1″ needle. […]
Briefly, the samples were assayed by Shimadzu SCL-10A controller with LC-10AD pump. […] The limit of quantitation (LOQ) of this method was 1 ng/mL.
Toxicokinetic data analysis was based on standard noncompartmental pharmacokinetic methods. […] The maximum observed plasma concentration (Cmax) was determined by visual estimation from the data plot. Area under the plasma concentration vs. time curve from 0 to the time of the last measurable concentration (AUC) was calculated by the linear trapezoidal method. […]

treated eyes (right eye) = conditions: rabbit, in vivo
Description: Ketamine hydrochloride injectable USP (100 mg/mL) and sodium chloride 0.9% USP were from Hospira, Inc. (Lake Forest, Ill.); proparacaine hydrochloride ophthalmic solution was from Bausch & Lomb (Tampa, Fla.); cyclopentolate hydrochloride ophthalmic solution was from Alcon Laboratories (Fort Worth, Tex.); xyrazine and potassium chloride (KCl) were from Sigma-Aldrich (St. Louis, Mo.). Syringes and needles were from Becton, Dickinson and Company (Franklin Lakes, N.J.). The binocular indirect ophthalmoscope used was the Keeler All Pupil II from Keeler Instruments (Broomall, Pa.) and it was complemented with the double aspheric lens 20D/50 mm for posterior chamber examination from Volk Optical Inc (Mentor, Ohio). Young adult New Zealand White rabbits each weighing 3-4 kg were obtained from Western Oregon Rabbit Co. (Philomath, Oreg.). This study complied with the ARVO Statement for the use of Animals in Ophthalmic and Vision Research and was approved by The University of Utah Institutional Animal Care and Use Committee (Salt Lake City, Utah). All animals were acclimated and observed for health issues for at least two weeks prior to being used in the study.
For the ocular toxicity study, there were four groups. […]
Body weights of the animal were taken upon arrival, and then monthly. […] Observations on the anterior and posterior segments of the eye were made, graded, and recorded. […]

Structure (SMILES) | Concentration that can inhibit prostaglandin release [1] | Tmax of DEX in plasma [2] [min] | Ocular findings in treated eyes (conjunctival injection, discharge, corneal haze) (treated eyes (right eye))
C[C@@H]1C[C@H]2[C@@H]3CCC4=CC(=O)C=C[C@]4(C)[C@@]3(F)[C@@H](O)C[C@]2(C)[C@@]1(O)C(=O)CO [DEX, dexamethasone] | 10^−7 M and ~40 ng/mL | 30 | 
C[C@@H]1C[C@H]2[C@@H]3CCC4=CC(=O)C=C[C@]4(C)[C@@]3(F)[C@@H](O)C[C@]2(C)[C@@]1(O)C(=O)COP(=O)(O)O [DSP, Dexamethasone sodium phosphate] |  |  | transient and mild in nature
